Assay results: patent US20070027130A1, “Tricyclic 6-alkylidene-penem beta-lactamase inhibitors and beta-lactam antibiotic combination: a broad spectrum antibiotic” (priority 2005, published 2007)
In brackets after ≈: the same amount, converted by molar mass.

What was measured:
Assay in all cases: MIC microbroth dilution
Assay type in all cases: cell-based
[1] = tested on: P. aeruginosa GC 1763 AmpC-inducible; details: Pseudomonas aeruginosa, β-lactamase class C, MHBII, 35° C. 18 hr, read-out: Minimal Inhibitory Concentration
Method: (§1) The in vitro activities of the antibiotics were determined by the microbroth dilution method as recommended by the National Committee for Clinical Laboratory Standards (NCCLS). (NCCLS. 2000. Methods for Dilution Antimicrobial Susceptibility Tests for Bacteria That Grow Aerobically; Approved Standards: M7-A5, vol. 19. National Committee for Clinical Laboratory Standards, Villanova, Pa.). Mueller-Hinton II broth (MHBII) (BBL Cockeysville, Md.), was used for the testing procedure. […]. The plates were incubated for 18-22 hours at 35 C. in ambient air.

[2] = tested on: K. pn GC 6488 (TEM-1 + SHV-5 + SHV-7); details: Klebsiella pneumoniae, β-lactamase class A, A (ESBL), MHBII, 35° C. 18 hr, read-out: Minimal Inhibitory Concentration
Method: as §1

[3] = tested on: E. coli GC 5901 (TEM-1 and SHV-8); details: Escherichia coli, β-lactamase class A, A (ESBL), MHBII, 35° C. 18 hr, read-out: Minimal Inhibitory Concentration
Method: as §1

[4] = tested on: K. pneumoniae GC 7645 TEM-30 TEM-1 KPC-2 SHV-12; details: Klebsiella pneumoniae, 18 h, read-out: Minimal Inhibitory Concentration
Method: as §1

[5] = tested on: P. aeruginosa PT 9025 PTZ-R; details: Pseudomonas aeruginosa, PT9025PTZR, 18 h, read-out: Minimal Inhibitory Concentration
Method: as §1

[6] = tested on: C. freundii GC 4164 Inducible AmpC; details: Citrobacter freundii, β-lactamase class C, MHBII, 35° C. 18 hr, read-out: Minimal Inhibitory Concentration
Method: as §1

[7] = tested on: E. cloacae GC 1712 AmpC-inducible; details: Enterobacter cloacae, β-lactamase class C, MHBII, 35° C. 18 hr, read-out: Minimal Inhibitory Concentration
Method: as §1

[8] = tested on: K. pn GC 1963 (TEM-10 + SHV-1 + SHV-ESBL); details: Klebsiella pneumoniae, β-lactamase class A, MHBII, 35° C. 18 hr, read-out: Minimal Inhibitory Concentration
Method: as §1

[9] = tested on: K. pn GC 1832 (SHV-4); details: Klebsiella pneumoniae, β-lactamase class A (ESBL), MHBII, 35° C. 18 hr, read-out: Minimal Inhibitory Concentration
Method: as §1

[10] = tested on: E. cloacae PT 1494 Inducible AmpC; details: Enterobacter cloacae, β-lactamase class C, MHBII, 35° C. 18 hr, read-out: Minimal Inhibitory Concentration
Method: as §1

[11] = tested on: E. coli GC 2805 (CcrA); details: Escherichia coli, 18 h, read-out: Minimal Inhibitory Concentration
Method: as §1

[12] = tested on: E. coli GC 2253 (IRT-2); details: Escherichia coli, 18 h, read-out: Minimal Inhibitory Concentration
Method: as §1

[13] = tested on: K. pneumoniae GC 7820 Act 1; details: Klebsiella pneumoniae, GC7820ACT1, β-lactamase class C, MHBII, 35° C. 18 hr, read-out: Minimal Inhibitory Concentration
Method: as §1

[14] = tested on: K. pneumoniae GC 7822 Act 1; details: Klebsiella pneumoniae, GC7822ACT1, β-lactamase class C, MHBII, 35° C. 18 hr, read-out: Minimal Inhibitory Concentration
Method: as §1

[15] = tested on: E. coli GC 1684 (TEM-10); details: Escherichia coli, β-lactamase class A (ESBL), MHBII, 35° C. 18 hr, read-out: Minimal Inhibitory Concentration
Method: as §1

[16] = tested on: K. oxytoca GC 7627 TEM-1 K1 KPC-2; details: Klebsiella oxytoca, 18 h, read-out: Minimal Inhibitory Concentration
Method: as §1

[17] = tested on: K. pn GC 6655 (TEM-1 + ACT-1); details: Klebsiella pneumoniae, β-lactamase class A, C, MHBII, 35° C. 18 hr, read-out: Minimal Inhibitory Concentration
Method: as §1

[18] = tested on: E. coli GC 1499 (TEM-4 + TEM-1); details: Escherichia coli, β-lactamase class A, A (ESBL), MHBII, 35° C. 18 hr, read-out: Minimal Inhibitory Concentration
Method: as §1

[19] = tested on: E. coli GC 2149 (ACT-1; TEM-1 + pl 5.6); details: Escherichia coli, β-lactamase class A, A (ESBL), C, MHBII, 35° C. 18 hr, read-out: Minimal Inhibitory Concentration
Method: as §1

[20] = tested on: P. aeruginosa GC 4161 Stably derepressed AmpC; details: Pseudomonas aeruginosa, 18 h, read-out: Minimal Inhibitory Concentration
Method: as §1

[21] = tested on: P. aeruginosa PT 9587 PTZ-R; details: Pseudomonas aeruginosa, PT9587PTZR; P. aeruginosa PT 9587, piperacillin-tazobactam-resistant; MHBII, 35° C. 18 hr; read-out: Minimal Inhibitory Concentration
Method: as §1

[22] = tested on: E. coli GC 2894 (AmpC); details: Escherichia coli, β-lactamase class C, MHBII, 35° C. 18 hr, read-out: Minimal Inhibitory Concentration
Method: as §1

[23] = tested on: K. pn GC 6651 (TEM-1 + SHV-1 + SHV-5); details: Klebsiella pneumoniae, β-lactamase class A, A (ESBL), MHBII, 35° C. 18 hr, read-out: Minimal Inhibitory Concentration
Method: as §1

[24] = tested on: E. cloacae GC 1475 (P99); details: Enterobacter cloacae, β-lactamase class C, MHBII, 35° C. 18 hr, read-out: Minimal Inhibitory Concentration
Method: as §1

[25] = tested on: K. pneumoniae GC 7821 DHA 1; details: Klebsiella pneumoniae, GC7821DHA1, β-lactamase class C, MHBII, 35° C. 18 hr, read-out: Minimal Inhibitory Concentration
Method: as §1

For `CO/N=C(\C(=O)N[C@@H]1C(=O)N2C(C(=O)[O-])=C(C[N+]3(C)CCCC3)CS[C@H]12)c1csc(N)n1` [Cefepime], the MIC [1] was 2 µg/mL (≈ 4.16 µM), the MIC [2] was 8 µg/mL (≈ 16.6 µM) and the MIC [3] was over 16 µg/mL. It also gave an MIC [4] of over 16 µg/mL, an MIC [5] of over 16 µg/mL and an MIC [6] of 2 µg/mL (≈ 4.16 µM). It also gave an MIC [7] of 0.25 µg/mL (≈ 0.52 µM), an MIC [8] of over 16 µg/mL and an MIC [9] of 2 µg/mL (≈ 4.16 µM). The MIC [10] was 0.25 µg/mL (≈ 0.52 µM), the MIC [11] was over 16 µg/mL and the MIC [12] was 0.03 µg/mL (≈ 0.0624 µM). For the same compound, the MIC [13] was 0.5 µg/mL (≈ 1.04 µM), the MIC [14] was over 16 µg/mL and the MIC [15] was over 16 µg/mL. For the same compound, the MIC [16] was over 16 µg/mL, the MIC [17] was 1 µg/mL (≈ 2.08 µM) and the MIC [18] was over 16 µg/mL. For the same compound, the MIC [19] was 16 µg/mL (≈ 33.3 µM), the MIC [20] was over 16 µg/mL and the MIC [21] was 4 µg/mL. It also gave an MIC [22] of 2 µg/mL (≈ 4.16 µM), an MIC [23] of 2 µg/mL (≈ 4.16 µM) and an MIC [24] of 1 µg/mL (≈ 2.08 µM). For the same compound, the MIC [25] was 0.06 µg/mL (≈ 0.125 µM).
